# Several values for one entry are separate records, joined by “and”; a condition that tells them apart may be missing. Equal values may be shown once. Starred links: 1 amine or outer side, 2 acyl side, 3 side chain; linkers in the order of their positions; H or OH if unused. Positions of bridges follow the written chain, without caps; N, C: chain ends. Non-standard residues stand in square brackets, D forms with d. Residues, ends and D or L forms follow the SMILES beside them. Trp(2-yl) = O=C([C@H](Cc1c([*:3])[nH]c2ccccc12)N[*:1])[*:2]; Ile(4R-OH,5-OH) = C[C@H]([C@H](N)C(=O)O)[C@@H](O)CO; X1 = N#C[C@@H]1C[C@@H](C(=O)[*:2])N([*:1])C1
# Assays:
# [1] = Viability assay against CHO cells (MTT colorimetric assay); assay type: cell-based, Chinese hamster; conditions: Chinese hamster, CHO cells, 72 h, replicates n = 1, 2, 3, read-out: % viable cells
# CHO cells = assay: as above; assay type: cell-based, Chinese hamster; conditions: 72 h, replicates n = 1, 2, 3, listed as CN-Pro-amanitin (4)
# Pol II = biological target: T1, Pol II (Homo sapiens, UniProt P24928); assay: In vitro transcription runoff assay using HeLaScribe nuclear extract; assay type: biochemical; conditions: for Transcription activity E (%): mean ± standard deviation; for IC50: IC50 (nM)
# T1 construct: HeLaScribe® nuclear extract containing Pol II and all other transcription factors; purchased Promega; host or cells: HeLa nuclear extract (endogenous protein)
smiles,measurement,setting,value
"CC[C@H](C)[C@@H]1NC(=O)CNC(=O)[C@@H]2Cc3c([nH]c4ccccc34)SC[C@H](NC(=O)CNC1=O)C(=O)N[C@@H](CC(N)=O)C(=O)N1C[C@H](C#N)C[C@H]1C(=O)N[C@@H]([C@@H](C)[C@@H](O)CO)C(=O)N2 [Compound 4, CN-Pro-amanitin] (cyclo(CN[X1][Ile(4R-OH,5-OH)][Trp(2-yl)]GIG); thioether 1-5)","viability at 72 h, 1e-05 M",[1]; 1e-005 M,110%
same,"viability at 72 h, 1.25e-06 M",[1]; 1.25e-006 M,102%
same,"viability at 72 h, 1.56e-07 M",[1]; 1.56e-007 M,102%
same,"viability at 72 h, 2e-05 M",[1]; 2e-005 M,121%
same,"viability at 72 h, 2.5e-06 M",[1]; 2.5e-006 M,101%
same,"viability at 72 h, 3.125e-07 M",[1]; 3.125e-007 M,99%
same,"viability at 72 h, 5e-06 M",[1]; 5e-006 M,103%
same,"viability at 72 h, 6.25e-07 M",[1]; 6.25e-007 M,102%
same,% viable cells,CHO cells; 1e-005 M,90%
same,% viable cells,CHO cells; 1.25e-006 M,91% and 92%
same,% viable cells,CHO cells; 1.56e-007 M,93% and 87%
same,% viable cells,CHO cells; 2e-005 M,118% and 108%
same,% viable cells,CHO cells; 2.5e-006 M,91% and 87%
same,% viable cells,CHO cells; 3.125e-007 M,92% and 90%
same,% viable cells,CHO cells; 5e-006 M,92% and 90%
same,% viable cells,CHO cells; 6.25e-007 M,89% and 92%
same,Transcription activity E (%),Pol II; 10 nM,80.7 ± 7.9%
same,Transcription activity E (%),Pol II; 30 nM,64.8 ± 7.4%
same,Transcription activity E (%),Pol II; 100 nM,74.0 ± 13.0%
same,Transcription activity E (%),Pol II; 300 nM,72.4 ± 9.7%
same,Transcription activity E (%),Pol II; 1000 nM,52.3 ± 17.0%
same,IC50,"Pol II; Table 11, 3 parameter logistic fit",480 ± 380 nM
same,IC50,"Pol II; Table 12, n = 3, high values estimated from activity at [I]=1.0 μM",480 ± 380 nM

# — patent US20240082416A1, “AMATOXIN ANALOGS AND USES THEREOF” (THE UNIVERSITY OF BRITISH COLUMBIA, priority 2020, published 2024)
